According to US20180028552A1, “COMBINATION THERAPY FOR TREATING CANCER” (Epizyme, Inc., priority 2015, published 2018):
“Also recorded” adds a separate entry of the source.

Tests used:
NOMO-1 (MLL-AF9) cells [1] = assay: Cell death / cell kill in NOMO-1 cells (Annexin V/7-AAD); type: cell-based; conditions: for resistance of cell line to the agent: sensitive is defined as IC50 ≤ 3 μM
Protocol: (§1) FIGS. 4A-4H are a series of schematics and graphs that depict the effect on cellular differentiation of AZA priming in AML cell lines. […] FIG. 4C depicts AZA dose response curves for an AML cell line panel. […] For the flow cytometry assays, Annexin V/7-AAD staining was used to assess cell death, and CD11b/CD14 antibodies were used to evaluate cellular differentiation. […] Flow cytometry assays were also performed to assess cellular differentiation and cell death following AZA priming followed by treatment of the cells with 0.5 μM EPZ-5676.

MV4-11 tumors = assay: MV4-11 subcutaneous xenograft efficacy study in nude rats; type: in vivo, rat; conditions: single agent at the MTD (Azacitidine 2 mg/kg, Cytarabine 200 mg/kg), intraperitoneal once daily for 14 days
Protocol: (§2) To follow up on these findings and to determine if combinations were tolerable and efficacious in vivo, nude rats implanted subcutaneously with MV4-11 tumors were dosed using a range of doses and schedules. […] In preparation for an efficacy combination study, the Azacitidine and Cytarabine single agent activity in a MV4-11 model was determined.
(§3) 35 mg/kg/day EPZ-5676 was administered by continous IV (CIV) infusion while Azacitdine and Cytarabine was dosed daily by intraperitoneal injection at 2 and 200 mg/kg respectively. […] The tumor volumes are represented as the median tumor volumes mm^3 of the group.

in vivo = conditions: nude, rat, ip
Protocol: as §2, §3

MV4-11 (MLL-AF4) cells [2] = assay: Cell death / cell kill in MV4-11 cells (Annexin V/7-AAD flow cytometry, CTG, cell count, Incucyte caspase 3/7); type: cell-based; conditions: for cell death in a dose response experiment: single agent dose response
Text: FIG. 2A depicts three experimental conditions: 1) MV4-11 cells were contacted with AZA for three consecutive days, followed by treatment with EPZ-5676 on the second, fourth, sixth, and ninth day; 2) the MV4-11 cells were contacted with vehicle for three consecutive days, followed by treatment with EPZ-5676 on the second, fourth, sixth, and ninth day; and 3) the MV4-11 cells were contacted with vehicle for three consecutive days, followed by contact with vehicle on the second, fourth, sixth, and ninth day.
FIGS. 5A-5F are a series of graphs that depict real-time imaging to study the effect of AZA priming on MV4-11 cells utilizing Incucyte Zoom® for suspension cell imaging. […] The Kinetic Caspase 3/7 reagent was used to assess cell death (FIG. 5B). For these assays, 6,000 cells were plated per well of a 96-well plate and dosed with EPZ-5676 using a ten point concentration gradient starting from 10 μM. 1× caspase dye was then added to each well. FIG. 5C is a series of graphs that depict real-time monitoring of cell death using Caspase 3/7 kinetic dye. […] FIG. 5E is a series of graphs that depict real-time monitoring of AUC Growth by Red object (labeled cell) count. FIG. 5F is a series of graphs that depicts cellular AUC growth following vehicle or AZA priming followed by treatment with EPZ-5676, and control conditions including vehicle alone, DMSO.
In this study of Example 1, the flexibility of treatment schedules when EPZ-5676 was combined with Azacitidine in MLL-r cells was evaluated.
Compounds were evaluated for cell killing effects as single agents and in combination according to the methods described in the experimental setup.

ML-2 (MLL-AF6) cells [3] = assay: Cellular differentiation assay in ML-2 cells; type: cell-based; conditions: for cellular differentiation (CD14+ differentiated cell population): 0.5 μM EPZ-5676, day not given
RS4;11 (MLL-AF4) cells [4] = assay: Cell death / cell kill in RS4;11 cells; type: cell-based; conditions: for cell death / cell kill: 0.5 μM EPZ-5676, day not given
ML-2 (MLL-AF6) cells [5] = assay: Cell death / cell kill in ML-2 cells; type: cell-based; conditions: for cell death: 0.5 μM EPZ-5676, day not given
RS4;11 (MLL-AF4) cells [6] = assay: Cellular differentiation assay in RS4;11 cells; type: cell-based; conditions: for cellular differentiation: 0.5 μM EPZ-5676, day not given
MV4-11 (MLL-AF4) cells [7] = assay: Cellular differentiation assay (CD11b/CD14 flow cytometry) in MV4-11 cells; type: cell-based
Protocol: FIGS. 4A-4H are a series of schematics and graphs that depict the effect on cellular differentiation of AZA priming in AML cell lines. FIGS. 4A and 4B are a series of schematics that depict the experimental setup of the assays performed to determine differentiation and cell death. FIG. 4C depicts AZA dose response curves for an AML cell line panel. FIGS. 4D-4G are a series of flow cytometry assays that were performed to assess cellular differentiation and cell death in the NOMO-1 acute myeloid leukemia cell line. For the flow cytometry assays, Annexin V/7-AAD staining was used to assess cell death, and CD11b/CD14 antibodies were used to evaluate cellular differentiation. […] Flow cytometry assays were also performed to assess cellular differentiation and cell death following AZA priming followed by treatment of the cells with 0.5 μM EPZ-5676.
FIGS. 6A-6D are a series of flow cytometry graphs that depict cellular differentiation and cell death following treatment of MV4-11 (MLL-AF4) cells with vehicle or AZA priming followed by 0.5 μM EPZ-5676, or vehicle only conditions.

[8] = test system: MLL rearranged leukemia xenograft; conditions: in vivo; cited from earlier work
H3K79me2 = H3K79me2 ChIP-qPCR in MV4-11 cells; type: cell-based; conditions: 0.5 μM EPZ-5676; 0.5 μM QD×3 AZA
Protocol: FIGS. 3A-3D are a series of graphs that contain data obtained from H3K79me2 ChIP-qPCR assays of MV4-11 (MLL-AF4) cells at various time points following exposure to either vehicle alone, vehicle and 0.5 μM EPZ-5676, or 0.5 μM QD×3 AZA and 0.5 μM EPZ-5676.

HOXA9 = HOXA9 expression; type: cell-based; conditions: dose dependent
Text: For example, a gene expression assay that can be used includes the steps of (1) culturing cells (e.g., EOL-1, KOPM-88, Molm13, MV411, LOUCY, SemK2, Reh, HL60, BV173, or Jurkat cells) in the presence or absence of a compound (e.g., Compound A2 and/or a DNMT inhibitor); (2) harvesting the cells; (3) extracting the RNA using methods known in the art (e.g., Qiagen RNeasy Kit); (4) synthesizing cDNA from the extracted RNA (e.g., Applied Biosystems reverse transcriptase kit); (5) preparing qPCR reactions using, for example, primers and probes (e.g., predesigned labeled primer and probe sets for HOXA9, FLT3, MEIS1, MEIS2, TBP, BCL, DOT1L, and β2-microglobulin from Applied Biosystems), synthesized sample cDNA, and qPCR master mix reagent (e.g., Applied Biosystems Taqman universal PCR master mix); (6) running samples on PCR machine (e.g., Applied Biosystems); (7) analysis of the data and calculation of relative gene expression.

MEIS1 = MEIS1 mRNA expression in MV4-11 cell line; type: cell-based; conditions: with increased concentrations (dose dependent)
Protocol: FIGS. 1A-1D are a series of graphs that depict mRNA expression levels of MEIS1 (FIGS. 1A and 1C) and HOXA2 (FIGS. 1B and 1D) in the MV4-11 cell line following treatment with AZA (also referred to herein as Azacitidine) and EPZ-5676. The data depicted in FIGS. 1A and 1B are from assays in which various concentrations of EPZ-5676 or DMSO alone, in combination with 1 μM AZA QD×3, 0.3 μM AZA QD×3, or vehicle alone were contacted with the cultured MV4-11 cells. (QD=daily dosage; QD×3=three day treatment). […]

[9] = test system: histone H3K79 methylation; conditions: cited from earlier work
[10] = test system: REH (non-rearranged control); assay: Cell kill combination study in REH cells; type: cell-based; conditions: sensitive is defined as IC50 ≤ 3 μM
NOMO-1 (MLL-AF9) cells [11] = assay: Cellular differentiation assay (CD11b/CD14) in NOMO-1 cells; type: cell-based; conditions: 0.5 μM EPZ-5676; day not given
Protocol: as §1

[12] = 0.5 μM EPZ-5676 with or without AZA priming, day not given
[13] = sensitive is defined as IC50 ≤ 3 μM

SMILES: Nc1ncn([C@@H]2O[C@H](CO)[C@@H](O)[C@H]2O)c(=O)n1 [Azacitidine, reference compound]
- resistance of cell line to the agent (NOMO-1 (MLL-AF9) cells [1]): resistant
- inhibition of subcutaneous MV4-11 tumor compared to vehicle control (MV4-11 tumors): 50%
- MTD at 14 days (in vivo): 2 mg/kg
- cell death in a dose response experiment (MV4-11 (MLL-AF4) cells [2]): AZA induces cell death in MV4-11 cells
- cellular differentiation (CD14+ differentiated cell population) (ML-2 (MLL-AF6) cells [3]): no effect
- cell death / cell kill (RS4;11 (MLL-AF4) cells [4]): effect on cell death
- cell death (ML-2 (MLL-AF6) cells [5]): effect on cell death
- cellular differentiation (RS4;11 (MLL-AF4) cells [6]): no effect

SMILES: Nc1ccn([C@@H]2O[C@H](CO)[C@@H](O)[C@@H]2O)c(=O)n1 [Cytarabine]
- inhibition of subcutaneous MV4-11 tumor compared to vehicle control (MV4-11 tumors): 50%
- MTD at 14 days (in vivo): 200 mg/kg

SMILES: CC(C)N(C[C@H]1O[C@@H](n2cnc3c(N)ncnc32)[C@H](O)[C@@H]1O)[C@H]1C[C@@H](CCc2nc3cc(C(C)(C)C)ccc3[nH]2)C1 [EPZ-5676, pinometostat]
- cellular differentiation (CD14 positive population) (MV4-11 (MLL-AF4) cells [7]; [12]): no increase
- CD11b+ cell population (MV4-11 (MLL-AF4) cells [7]; Day 6): Depletion of CD11b+ cell
- CD14+ cell population (MV4-11 (MLL-AF4) cells [7]; Day 6): No increase in CD14+
- CD11b+ cell population (MV4-11 (MLL-AF4) cells [7]; Day 10): Depletion of CD11b+
- CD14+ cell population (MV4-11 (MLL-AF4) cells [7]; Day 10): No increase in CD14+—
- tumor response [8]: complete tumor regressions
- cell death (NOMO-1 (MLL-AF9) cells [1]; 0.5 μM EPZ-5676, day not given): no appreciable cell death
- cell kill (NOMO-1 (MLL-AF9) cells [1]; Day 6): No cell kill with EPZ-
- cell kill (NOMO-1 (MLL-AF9) cells [1]; Day 10): No cell kill with EPZ-
- resistance of cell line to the agent (NOMO-1 (MLL-AF9) cells [1]): resistant
- H3K79me2 signal / mark (ChIP-qPCR, MEIS1 and HOXA9 genes) (H3K79me2): reduced; also recorded: single agent both decrease H3K79me2
- cell death (MV4-11 (MLL-AF4) cells [2]; [12]): no appreciable cell death
- IC50 (MV4-11 (MLL-AF4) cells [2]; Homo sapiens, MV4-11, read-out: sensitivity of MV4-11 to EPZ-5676): ≤ 3000 nM
- cell death in a dose response experiment (MV4-11 (MLL-AF4) cells [2]): EPZ-5676 does not induce cell death in
- HOXA9 expression (HOXA9): reduces
- cellular differentiation (CD14+ differentiated cell population) (ML-2 (MLL-AF6) cells [3]): no cell differentiation; also recorded: population as compared to no
- differentiation (ML-2 (MLL-AF6) cells [3]; Day 6): No differentiation
- differentiation (ML-2 (MLL-AF6) cells [3]; Day 10): No differentiation
- MEIS1 mRNA levels / expression (MEIS1): reduces
- cell death / cell kill (RS4;11 (MLL-AF4) cells [4]): no cell death
- cell kill (RS4;11 (MLL-AF4) cells [4]; Day 6): No cell kill with EPZ-
- cell kill (RS4;11 (MLL-AF4) cells [4]; Day 10): No cell kill with EPZ-
- resistance of cell line to the agent (RS4;11 (MLL-AF4) cells [4]; [13]): resistant
- inhibition of intracellular histone H3K79 methylation [9]: selectively inhibits
- resistance of cell line to the agent [10]: resistant
- cell death (ML-2 (MLL-AF6) cells [5]): no cell death
- cell kill (ML-2 (MLL-AF6) cells [5]; Day 6): No cell kill with EPZ-
- cell kill (ML-2 (MLL-AF6) cells [5]; Day 10): No cell kill with EPZ-
- resistance of cell line to the agent (ML-2 (MLL-AF6) cells [5]; [13]): resistant
- cellular differentiation (RS4;11 (MLL-AF4) cells [6]): no cell differentiation
- differentiation (RS4;11 (MLL-AF4) cells [6]; Day 6): No differentiation
- differentiation (RS4;11 (MLL-AF4) cells [6]; Day 10): No differentiation
- amount of CD14+ cells (NOMO-1 (MLL-AF9) cells [11]): increase
